Km data for two molecules are collected here from PMC7894407, “Rapid conversion of isoprene photooxidation products in terrestrial plants” (Communications earth & environment, 2020).

Molecules are shown by their SMILES.

The subject of test [1] is T1, poplar AOR (EC 1.3.1.74), alkenal/one oxidoreductase.
T1 construct: gene AORchl; native enzyme in desalted (Sephadex G-25 PD-10) crude leaf protein extract, not purified; AORchl predominantly expressed in leaf, AORcyt-II in stem; active isoenzyme not determined
The test is described as follows: NADPH consumption at A340 nm, MVK varied, leaf protein extract. It is filed as biochemical, Populus x canescens. Particulars: co-substrate NADPH; apparent in vitro, crude leaf extract; 50 mM Tris/HCl, 20 mM MgCl2, 5% glycerol, 2 mM DTT; read-out: Michaelis-Menten constant.

Test [2] shares this test system. Description: NADPH consumption at A340 nm, NADPH varied, leaf protein extract. In kind it is biochemical, Populus x canescens. Particulars: co-substrate MVK; apparent in vitro, crude leaf extract; 50 mM Tris/HCl, 20 mM MgCl2, 5% glycerol, 2 mM DTT; read-out: Michaelis-Menten constant.

For the molecule `C=CC(C)=O` [MVK], in test [1], the Km turned out to be 14.1 mM.
For the molecule `NC(=O)C1=CN([C@@H]2O[C@H](COP(=O)(O)OP(=O)(O)OC[C@H]3O[C@@H](n4cnc5c(N)ncnc54)[C@H](OP(=O)(O)O)[C@@H]3O)[C@@H](O)[C@H]2O)C=CC1` [NADPH], the Km in test [2] came to 0.049 mM.
